# Source: patent publication US20200239530A1, “COMPOUNDS AND METHODS OF MODULATING PROTEIN DEGRADATION” (Vividion Therapeutics, Inc., priority 2017, published 2020)
# Key:
# Assay in all cases: Cysteine liganding, probe competition
# Format in all cases: binding
# [1] = target: T1, KIAA0664 Clustered mitochondria protein homolog (Homo sapiens, UniProt O75153)
# T1 construct: Cells were resuspended in cold PBS on ice and sonicated with a probe sonicator to achieve lysis; endogenous in cells
# T1 sequence (O75153 1-1309): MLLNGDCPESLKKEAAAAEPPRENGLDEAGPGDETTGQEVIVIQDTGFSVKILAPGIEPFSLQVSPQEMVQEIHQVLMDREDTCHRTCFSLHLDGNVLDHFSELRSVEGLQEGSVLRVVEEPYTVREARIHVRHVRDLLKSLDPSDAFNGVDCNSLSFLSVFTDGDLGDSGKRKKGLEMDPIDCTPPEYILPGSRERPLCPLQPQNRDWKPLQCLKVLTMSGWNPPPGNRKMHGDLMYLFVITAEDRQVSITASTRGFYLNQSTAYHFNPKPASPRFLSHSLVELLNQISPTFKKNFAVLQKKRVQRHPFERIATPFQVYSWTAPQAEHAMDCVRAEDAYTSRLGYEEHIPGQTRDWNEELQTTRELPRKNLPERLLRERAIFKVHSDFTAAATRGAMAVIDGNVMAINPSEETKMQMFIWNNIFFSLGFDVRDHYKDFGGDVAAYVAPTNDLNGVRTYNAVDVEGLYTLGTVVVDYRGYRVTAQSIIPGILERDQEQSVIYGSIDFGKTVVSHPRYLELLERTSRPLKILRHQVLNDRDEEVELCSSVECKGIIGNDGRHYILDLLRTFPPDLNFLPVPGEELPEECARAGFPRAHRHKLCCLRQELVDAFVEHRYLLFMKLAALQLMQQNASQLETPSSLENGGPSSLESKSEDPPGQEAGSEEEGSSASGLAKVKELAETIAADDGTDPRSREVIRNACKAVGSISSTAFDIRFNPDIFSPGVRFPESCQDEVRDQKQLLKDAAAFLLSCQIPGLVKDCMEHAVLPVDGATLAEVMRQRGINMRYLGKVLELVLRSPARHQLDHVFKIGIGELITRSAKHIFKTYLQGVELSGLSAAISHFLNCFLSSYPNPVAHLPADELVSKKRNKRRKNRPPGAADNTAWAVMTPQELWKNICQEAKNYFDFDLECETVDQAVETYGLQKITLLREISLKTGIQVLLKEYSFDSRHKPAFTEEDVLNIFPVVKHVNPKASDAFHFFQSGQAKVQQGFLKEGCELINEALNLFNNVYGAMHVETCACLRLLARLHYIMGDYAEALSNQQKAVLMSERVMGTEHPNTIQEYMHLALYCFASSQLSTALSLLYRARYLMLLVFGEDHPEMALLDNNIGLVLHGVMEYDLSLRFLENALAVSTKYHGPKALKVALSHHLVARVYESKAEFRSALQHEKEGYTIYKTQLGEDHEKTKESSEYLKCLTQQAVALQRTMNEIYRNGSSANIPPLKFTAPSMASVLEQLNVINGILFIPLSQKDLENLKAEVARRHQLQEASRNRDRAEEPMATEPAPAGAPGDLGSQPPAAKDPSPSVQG
# Outline: (§1)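 Lysates from probe-sonicated cells in PBS (5 mg/ml proteome) were exposed to compound for 1 hr at 25° C, then labelled with desthiobiotin iodoacetamide probe (10 mM stock) for 1 hr at 25° C. Probe-tagged peptides were streptavidin-enriched after trypsin digestion.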
# [2] = target: T2, BIRC2 Baculoviral IAP repeat-containing protein 2 (Homo sapiens, UniProt Q13490); conditions: for Liganded: BIRC2 Res# 45, uniprot Q13490
# T2 construct: Cells were resuspended in cold PBS on ice and sonicated with a probe sonicator to achieve lysis; endogenous in cells
# Outline: as §1
# SQSTM1 Sequestosome-1 = target: T3, SQSTM1 Sequestosome-1 (Homo sapiens, UniProt Q13501)
# T3 construct: Cells were resuspended in cold PBS on ice and sonicated with a probe sonicator to achieve lysis; endogenous in cells
# Outline: as §1
# T3 sequence (Q13501 whole entry): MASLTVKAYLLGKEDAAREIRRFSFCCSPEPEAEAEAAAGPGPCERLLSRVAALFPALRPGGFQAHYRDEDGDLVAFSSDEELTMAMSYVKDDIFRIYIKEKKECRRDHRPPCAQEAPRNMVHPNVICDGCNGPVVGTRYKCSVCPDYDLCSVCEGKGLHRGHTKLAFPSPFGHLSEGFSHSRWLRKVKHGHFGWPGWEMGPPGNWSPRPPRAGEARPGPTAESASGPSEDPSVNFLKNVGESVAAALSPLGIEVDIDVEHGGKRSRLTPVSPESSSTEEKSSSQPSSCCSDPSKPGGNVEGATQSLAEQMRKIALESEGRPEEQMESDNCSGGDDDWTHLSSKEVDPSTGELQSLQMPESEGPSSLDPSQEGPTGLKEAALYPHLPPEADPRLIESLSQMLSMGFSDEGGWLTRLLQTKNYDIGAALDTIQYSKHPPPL
# T2 sequence (Q13490 whole entry): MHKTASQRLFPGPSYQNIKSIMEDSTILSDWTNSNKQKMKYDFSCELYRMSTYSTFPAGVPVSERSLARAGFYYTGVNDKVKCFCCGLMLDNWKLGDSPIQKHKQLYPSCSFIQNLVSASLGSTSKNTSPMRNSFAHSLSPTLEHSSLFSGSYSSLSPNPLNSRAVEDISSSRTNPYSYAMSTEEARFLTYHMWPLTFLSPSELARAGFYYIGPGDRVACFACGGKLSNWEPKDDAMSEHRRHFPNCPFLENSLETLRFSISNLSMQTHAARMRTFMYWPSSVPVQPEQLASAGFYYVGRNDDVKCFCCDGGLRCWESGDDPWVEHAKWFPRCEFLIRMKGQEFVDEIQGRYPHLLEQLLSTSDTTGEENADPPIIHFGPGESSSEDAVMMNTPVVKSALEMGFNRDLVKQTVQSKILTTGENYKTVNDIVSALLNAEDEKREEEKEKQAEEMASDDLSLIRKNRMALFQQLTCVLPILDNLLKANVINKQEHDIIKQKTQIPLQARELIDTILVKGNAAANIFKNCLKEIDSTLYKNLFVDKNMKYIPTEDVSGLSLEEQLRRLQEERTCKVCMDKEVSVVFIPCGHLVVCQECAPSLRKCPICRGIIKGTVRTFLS
SMILES,"Liganded ([1]; KIAA0664 Res# 333, uniprot O75153)",Liganded [2],"Liganded (SQSTM1 Sequestosome-1; SQSTM1 Res# 131, uniprot Q13501)",100 Max ([1]; uniprot O75153),100 ave ([1]; uniprot O75153),500 ave ([1]; uniprot O75153),"500 Max ([1]; uniprot O75153, in % (unit assumed))",100 Max ([2]; uniprot Q13490),100 ave ([2]; uniprot Q13490),500 Max ([2]; uniprot Q13490),500 ave ([2]; uniprot Q13490),100 Max (SQSTM1 Sequestosome-1; uniprot Q13501),100 ave (SQSTM1 Sequestosome-1; uniprot Q13501),500 Max (SQSTM1 Sequestosome-1; uniprot Q13501),500 ave (SQSTM1 Sequestosome-1; uniprot Q13501)
COc1ccc2c(c1)CCCN2C(=O)CCl [KB02],YES,YES,YES,,,,,,,,,,,,
O=C(CCl)Nc1cc(C(F)(F)F)cc(C(F)(F)F)c1 [KBO3],,YES,,23.11,9.323,51.405,73.65,47.9,41.4,92.0,85.9,11.89,−14.15,56.86,54.29
